Source: patent US11370771B2, “Inhibitors of TRPC6” (Boehringer Ingelheim International GmbH, priority 2018, dated 2022)

How the values were obtained:
human TRPC6 = target: T1, human TRPC6 (Homo sapiens, UniProt Q9Y210); assay: High Throughput Screening Assay Method 1 (FLIPR membrane potential dye, OAG activation, HEK293 cells expressing human TRPC6); assay type: cell-based; settings: antagonist effect against human TRPC6, 60 μM OAG, read-out: Fluorescence TRPC6 IC50
T1 construct: expressed in transfected cells
T1 sequence (Q9Y210 1-931): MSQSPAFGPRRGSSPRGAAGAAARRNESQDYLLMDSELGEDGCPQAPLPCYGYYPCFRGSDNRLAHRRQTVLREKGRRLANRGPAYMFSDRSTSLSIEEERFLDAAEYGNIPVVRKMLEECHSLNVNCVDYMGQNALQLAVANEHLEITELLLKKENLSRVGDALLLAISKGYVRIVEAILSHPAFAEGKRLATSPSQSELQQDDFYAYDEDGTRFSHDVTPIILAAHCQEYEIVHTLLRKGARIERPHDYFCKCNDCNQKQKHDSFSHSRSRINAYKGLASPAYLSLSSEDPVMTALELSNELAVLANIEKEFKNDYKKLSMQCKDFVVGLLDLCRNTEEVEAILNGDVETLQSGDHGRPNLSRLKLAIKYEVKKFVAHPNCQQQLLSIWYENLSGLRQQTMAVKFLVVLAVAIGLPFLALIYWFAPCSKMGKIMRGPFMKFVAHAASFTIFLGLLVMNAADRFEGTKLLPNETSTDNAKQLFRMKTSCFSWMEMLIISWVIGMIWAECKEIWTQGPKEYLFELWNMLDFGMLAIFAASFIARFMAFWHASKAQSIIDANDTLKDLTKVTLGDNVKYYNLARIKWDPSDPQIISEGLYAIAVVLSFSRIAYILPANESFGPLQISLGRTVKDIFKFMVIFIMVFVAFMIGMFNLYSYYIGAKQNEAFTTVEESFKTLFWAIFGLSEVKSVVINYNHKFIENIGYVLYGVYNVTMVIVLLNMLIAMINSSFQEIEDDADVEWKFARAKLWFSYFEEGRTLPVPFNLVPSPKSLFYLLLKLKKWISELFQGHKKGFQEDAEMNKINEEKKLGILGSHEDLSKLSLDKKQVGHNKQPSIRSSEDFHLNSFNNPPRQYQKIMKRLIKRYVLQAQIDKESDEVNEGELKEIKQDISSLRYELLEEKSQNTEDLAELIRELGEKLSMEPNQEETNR
From the text: This screening assay measures TRPC6 (transient receptor potential cation channel, subfamily C, member 6) ion channel activation via addition either of the commercially available DAG ligand analogue OAG (1-oleoyl-2-acetyl-sn-glycerol) or of the TRPC6 agonist 1-[1-(4,5,6,7,8-pentahydrocyclohepta[2,1-d]thiophen-2-ylcarbonyl)-4-piperidyl]-3-hydrobenzimidazol-2-one (GSK1702934A). The assay utilizes a FLIPR membrane potential (FMP) dye from Molecular Devices, which is a voltage sensitive indicator with a fluorescent quencher. Changes in membrane potential as measured by the fluorescent signal increase during membrane depolarization provide a measurement of channel activity.
The commercially available HEK293 cell line expressing human TRPC6 channel (Axxam/PerkinElmer) is scaled up in bulk and frozen in liquid nitrogen. Frozen cell stocks are thawed and re-suspended in culture media as recommended by the manufacturer supplemented with 0.5 mg/ml of geneticin to promote retention of the TRPC6 construct. Cells are plated at a density of 15,000 cells/well in Greiner 384 well poly-D-lysine coated black clear bottom plates, and incubated for 18-20 h at 37° C. and 5% CO2. To initiate the assay, the growth media is removed using a plate washer and 25 ul of a FMP dye mix is added to each well. The 4× stock FMP dye from the manufacturer is diluted 1× with assay buffer (low calcium Tyrode's assay buffer: 130 mM NaCl, 5 mM KCl, 0.15 mM CaCl2), 1 mM MgCl2, 5 mM NaHCO3, 20 mM HEPES pH 7.4) containing 36 μM BAPTA/AM. The cells are incubated at room temperature (19-22° C.) for 30 minutes. For the screening assay, 5 uL of diluted compound stock is added to each well and incubated for 15 minutes at room temperature (19-22° C.). Using the Hamamatsu FDSS6000 or FDSS7000, 10 uL of the synthetic, membrane permeant analog of 1,2 diacylglycerol (DAG), 1-oleoyl-2-acetoyl-n-glycerol (OAG), is added and fluorescent readings taken every second from 50 seconds to 3 minutes. […] Controls and blanks consisted of HEK293 TRPC6 cells that are exposed to OAG. A reference inhibitor added along with the test compound is included as part of the blanks. This inhibitor suppresses the TRPC6 channel activation. These controls set the screening window, and “hits” are defined as those compounds inhibiting the membrane depolarization caused by OAG by at least 50%. IC50 values are determined for compounds that meet these criteria by titrating compound stock at a final starting concentration of 30 μM using a 3-fold serial dilution for 11 points. Curves are generated by fitting each data set to a four-parameter logistic equation using nonlinear regression.

PASMC = settings: cited from earlier work
TRPC6 = settings: lung tissue of IPAH patients; cited from earlier work

Compound Nc1ccc(N2CCN(C(=O)c3ccc(Oc4ccc(C(F)(F)F)cc4)cc3)CC2)cn1 [Compound 19, 5-(4-{4-[4-(trifluoromethyl)phenoxy]benzoyl}piperazin-1-yl)pyridin-2-amine] has an IC50 (human TRPC6) of 1330 nM.

CCc1ccc(Oc2ccc(C(=O)N3CCN(c4ccc(N)nn4)CC3)cc2)cc1 [Compound 20, 6-{4-[4-(4-ethylphenoxy)benzoyl]piperazin-1-yl}pyridazin-3-amine] gave an IC50 (human TRPC6) of 1160 nM.

In the case of COc1ccccc1Oc1c(NS(=O)(=O)c2ccc(C(C)(C)C)cc2)nc(-c2ncccn2)nc1OCCO [bosentan], the “proliferation of PASMC” value (PASMC) is given as “decreases proliferation” and the “expression of TRPC6” value (TRPC6) is given as “decreases expression of TRPC6”.

CC(C)c1ccc(Oc2ccc(C(=O)N3CCN(c4ccc(N)nn4)CC3)cc2)cc1 [Compound 18, 6-(4-{4-[4-(propan-2-yl)phenoxy]benzoyl}piperazin-1-yl)pyridazin-3-amine] showed an IC50 (human TRPC6) of 1310 nM.

Work on CCc1ccc(Oc2ccc(C(=O)N3CCN(c4ccc(N)nc4)CC3)cc2)cc1 [Compound 14, 5-{4-[4-(4-ethylphenoxy)benzoyl]piperazin-1-yl}pyridin-2-amine] yielded an IC50 (human TRPC6) of 324 nM.

CC(=O)c1ccc(Oc2ccc(C(=O)N3CCC(c4ccc(N)nn4)CC3)cc2)cc1 [Compound 16, 1-(4-{4-[4-(6-aminopyridazin-3-yl)piperidine-1-carbonyl]phenoxy}phenyl)ethan-1-one] showed an IC50 (human TRPC6) of 2070 nM.

Nc1ccc(N2CCN(C(=O)c3ccc(Oc4ccc(Cl)cc4)cc3)CC2)nn1 [Compound 11, 6-{4-[4-(4-chlorophenoxy)benzoyl]piperazin-1-yl}pyridazin-3-amine] gave an IC50 (human TRPC6) of 1040 nM.
